# Laboratory results reported in PubChem BioAssay AID720696 (Broad Institute, 2013).
# System: Clone20 osteoblast Shn3 3'UTR firefly luciferase, 24 h
# Test: Shn3 3'UTR reporter inhibitors, dose response, cell-based, luminescence, dry powder (AID 720696)
row,SMILES,AC50 [µM]
1,CC(=O)Nc1cccc(NC(=O)CSc2ncc(-c3ccc(Cl)cc3)n2Cc2ccco2)c1,3.38
2,COc1ccccc1N1CCN(c2ncc(C(=O)N3CCN(c4cccc(Cl)c4)CC3)c3ccccc23)CC1,2.54
3,Cc1cc2c(cc(C(=O)N3CCC(C(=O)NC4CCCC4)CC3)n2Cc2c(F)cccc2Cl)o1,21.3
4,CCCOc1ccccc1C1CC(=O)Nc2cc3c(cc21)OCO3 (stereo not drawn),2.16
5,CCCc1nnc(NC(=O)c2nc(S(=O)(=O)Cc3ccc(C)cc3)ncc2Cl)s1,3.83
6,Cc1cc(N2CCCC2=O)cc(C)c1S(=O)(=O)NCCOc1ccc(C(C)(C)C)cc1,0.797
7,CCOC(=O)C1CCN(C(=O)c2ccc(OCC(=O)Nc3cccc(C(F)(F)F)c3)c(OC)c2)CC1,1.4
8,Cc1ccc2cc(CN(CC3CCCO3)C(=O)NC3CCCCC3)c(=O)[nH]c2c1C (stereo not drawn),5.22
9,CC(C)[C@H](NC(=O)OC(C)(C)C)c1nnc(S(=O)(=O)Cc2c(F)cccc2Cl)o1,17.1
10,Nc1nonc1C(=O)NCCNCc1cc(Br)ccc1OCc1ccc(F)cc1,2.03
11,CN(CC(=O)Nc1cccc(S(=O)(=O)N2CCOCC2)c1)CC(=O)Nc1ccc(Cl)c(C(F)(F)F)c1,0.877
12,COc1cc(CN2CCc3ccccc3C2)ccc1O,2.09
13,CC(=O)N1CCN(C(=O)CCc2cc(C(C)(C)C)c(O)c(C(C)(C)C)c2)CC1,4.01
14,CC(C)(C)NC(=O)CSc1nc2ccc(NC(=O)CSc3nnnn3Cc3ccccc3)cc2s1,2.14
15,CN(C(=O)COc1ccccc1C(=O)NCCOc1ccccc1)c1ccccc1,1.92
16,COc1cc2ncnc(N[C@H](C)c3ccccc3)c2cc1OC,5.13
17,Fc1ccc(-n2nnnc2-c2cnc(-c3cccs3)nc2C(F)(F)F)cc1,2.76
18,CCOC(=O)C1(Cc2ccc(Cl)cc2)CCN(C(C)Cc2ccc(O)c(OC)c2)CC1 (stereo not drawn),1.62
19,COc1ccc(Nc2nc(N3CCCCC3)c3ccccc3n2)cc1,1.1
20,COc1ccc(NC(=O)c2nc(S(=O)(=O)Cc3cccc(C)c3)ncc2Cl)c(OC)c1,3.86
21,O=C(c1nnsc1S(=O)c1ccc(Cl)cc1)N1CCOCC1 (stereo not drawn),5.08
22,COc1ccc2c(c1)c(CC(=O)Nc1cc(C)ccc1C)c(C)n2C(=O)c1ccc(Cl)cc1,3.24
23,CN(C)c1nc(-c2ccccn2)nnc1-c1ccccc1,2.62
24,CN(C)S(=O)(=O)c1cccc(NC(=O)c2cccc(S(=O)(=O)N3CCc4ccccc43)c2)c1,2.41
25,O=c1c2ccccc2nc2n1C(CSCc1ccc(Cl)cc1Cl)CS2 (stereo not drawn),2.01
26,O=C1CSc2ccc(C(=O)Nc3cccc(S(=O)(=O)Nc4ccc(Br)cc4)c3)cc2N1,1.99
27,CCOC(=O)c1ccc(NC(=O)Cn2ncc(Cl)c(Cl)c2=O)cc1,2.56
28,COc1ccc(NS(=O)(=O)c2ccc(C(=O)N3CCCCCC3)cc2)cc1,3.7
